From US20160374370A1, “BEVERAGE COMPRISING FERROUS PICOLINATE” (NESTEC S.A., priority 2013, published 2016)

Assay: Colour change in iron fortified strawberry fermented milk beverages (CIELAB colorimetry)
Format: physicochemical
Settings: for ΔEab* on addition / ΔEab* after heat treatment: colour difference vs beverage with no iron salts, approx. 2.1 mg iron per 100 g; for ΔEab* on addition: fermented milk beverage containing 2.1% strawberry, stirred under argon 20 minutes; for ΔEab* after heat treatment: heat treated at 95° C. for 2 minutes, 2.1% strawberry fermented milk beverage
Protocol: Ferrous picolinate was prepared according to the procedure of U.S. Pat. No. 4,315,927 Example 3. A fermented milk beverage containing 2.1% strawberry was iron fortified by the addition of ferrous sulphate (Dr Paul Lohmann™) (Sample A) or ferrous picolinate (Sample B). The amount of the ferrous salts were chosen to provide approximately 2.1 mg iron per 100 g fermented milk beverage. Each ferrous salt was added to the fermented milk beverage and stirred under argon for 20 minutes. A further sample without iron fortification was also prepared in the same manner. Colour measurements were performed in 1×1 cm polystyrene cuvettes using an X-Rite ColorEye 7000A colorimeter. The colorimeter was set up with a D65 light source, 10 degree observer angle and with specular component included. The colour difference between the beverage with no iron salts and the iron fortified beverages was measured for each ferrous salt and expressed as ΔEab* using the CIELAB colour scale.
The fermented milks were then heat treated at 95° C. for 2 minutes. Colour measurements were performed in the same manner as before. The colour difference between the beverage with no iron salts and the iron fortified beverages was measured for each ferrous salt and expressed as ΔEab* using the CIELAB colour scale.

| Molecule | ΔEab* on addition | ΔEab* after heat treatment | colour compared with the beverage with no added iron (both after simple addition of the salts and after heat treatment, compared with ferrous sulphate) |
| --- | --- | --- | --- |
| O=S(=O)([O-])[O-].[Fe+2] [FeSO4 × H20, ferrous sulphate, reference compound] | 0.84 | 2.80 | – |
| ferrous picolinate | 0.36 | 1.66 | closer in colour to the beverage with no added iron than the beverage fortified with ferrous sulphate |
